Here are results for two molecules from patent US5686458A, “Quinazoline deriviates for treating peptic ulcer” (Yuhan Corporation, priority 1992, dated 1997).

Where “and” joins values, the source holds several entries; their conditions need not be identical. Identical values can stand only once. Like-named read-outs stand apart in the source and are kept apart here.

In assay [1] the test system is gastric secretion stimulated by histamine. Nature of the assay: Anti-secretory effects when gastric secretion is stimulated by histamine (Experiment 3-1). In kind it is in vivo, Sprague-Dawley male rats. The settings on record: intravenous; for ED50: Rattus norvegicus, read-out: ED50, gastric secretion inhibition. As to the method:
In accordance with the method [see Ghosh and Shild, et al., British Journal of pharmacology 13:54-61 (1958)], anti-secretory effects of the test substances were studied in this Experiment. Sprague-Dawley male rats having a body weight of 200±20 g were divided into 3 groups, Group 1 to be administered with the compound of Example 34, Group 2 to be administered with SK&F96067[see Keeling, D. […] The rats of each Group, deprived of food for 24 hours before the experiment with free access to water, were anesthetized by intraperitoneally administering of 1.5 g/kg of 20% aqueous urethane solution and positioned on the test plate which was heated and maintained at 37° C. The anesthetized rats were cannulated at the right jugular vein for the administration of the test compounds and the left jugular vein for the administration of stimulating substances. After an abdominal incision, tubes were inserted into the esophagus and duodenum, each of which was connected with saline in a thermostat and a fraction collector. […] To the left jugular vein, histamine was administered as a gastric secretion stimulator. […] The gastric secretion inhibition (%) of the test compounds was calculated from the following equation: The gastric secretion inhibition (%) of the test compounds =(A-C)/(A-B)×100 . . . (IV) in which […]

The subject of assay [2] is gastric secretion stimulated by pentagastrin. Nature of the assay: Inhibition of gastric secretion stimulated by pentagastrin (Experiment 3-2). In kind it is in vivo, Sprague-Dawley male rats. The settings on record: intravenous; for ED50: Rattus norvegicus.
Description: The same procedures as in Experiment 3-1 were carried out, except that as a secretion stimulating substance, pentagastrin was infused into the left jugular vein of the rats at a dosage of 24 μg/2 ml/200 g/hr.
Assay [3] addresses T1, Proton Pump (H^+ /K^+ ATPase) (Oryctolagus cuniculus, UniProt P27112).
T1 construct: The microsomes thus obtained were used as an enzyme source of the in vitro enzyme reaction study of proton pump; from tissue; host or cells: rabbit stomach, mucosal scrapings, microsomes (180,000 g pellet)
Nature of the assay: Inhibition of Proton Pump (H+/K+ ATPase) Activity, in vitro enzyme reaction (Experiment 1). The format is biochemical, New Zealand white rabbit. In short, it runs like this: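 Rabbit gastric mucosal microsomes (100 μg/ml) in 50 mM Tris-HCl pH 7.2 with 8 mM MgCl2, 100 mM KCl and 20 mM NH4Cl were preincubated with compound for 15 min at 37 °C. Reaction ran 30 min at 37 °C with 6.7 mM ATP; released phosphate was measured. K+-stimulated activity (Mg/K minus Mg alone) gave IC50 via Litchfield-Wilcoxon.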

Assay [4] deals with T2, H^+ /K^+ ATPase, gastric vesicles (Sus scrofa, UniProt P19156).
T2 construct: Gastric vesicles were prepared from pig stomach; from tissue; host or cells: pig stomach, lyophilized gastric vesicles
T2 sequence (P19156 2-1034 limits assumed): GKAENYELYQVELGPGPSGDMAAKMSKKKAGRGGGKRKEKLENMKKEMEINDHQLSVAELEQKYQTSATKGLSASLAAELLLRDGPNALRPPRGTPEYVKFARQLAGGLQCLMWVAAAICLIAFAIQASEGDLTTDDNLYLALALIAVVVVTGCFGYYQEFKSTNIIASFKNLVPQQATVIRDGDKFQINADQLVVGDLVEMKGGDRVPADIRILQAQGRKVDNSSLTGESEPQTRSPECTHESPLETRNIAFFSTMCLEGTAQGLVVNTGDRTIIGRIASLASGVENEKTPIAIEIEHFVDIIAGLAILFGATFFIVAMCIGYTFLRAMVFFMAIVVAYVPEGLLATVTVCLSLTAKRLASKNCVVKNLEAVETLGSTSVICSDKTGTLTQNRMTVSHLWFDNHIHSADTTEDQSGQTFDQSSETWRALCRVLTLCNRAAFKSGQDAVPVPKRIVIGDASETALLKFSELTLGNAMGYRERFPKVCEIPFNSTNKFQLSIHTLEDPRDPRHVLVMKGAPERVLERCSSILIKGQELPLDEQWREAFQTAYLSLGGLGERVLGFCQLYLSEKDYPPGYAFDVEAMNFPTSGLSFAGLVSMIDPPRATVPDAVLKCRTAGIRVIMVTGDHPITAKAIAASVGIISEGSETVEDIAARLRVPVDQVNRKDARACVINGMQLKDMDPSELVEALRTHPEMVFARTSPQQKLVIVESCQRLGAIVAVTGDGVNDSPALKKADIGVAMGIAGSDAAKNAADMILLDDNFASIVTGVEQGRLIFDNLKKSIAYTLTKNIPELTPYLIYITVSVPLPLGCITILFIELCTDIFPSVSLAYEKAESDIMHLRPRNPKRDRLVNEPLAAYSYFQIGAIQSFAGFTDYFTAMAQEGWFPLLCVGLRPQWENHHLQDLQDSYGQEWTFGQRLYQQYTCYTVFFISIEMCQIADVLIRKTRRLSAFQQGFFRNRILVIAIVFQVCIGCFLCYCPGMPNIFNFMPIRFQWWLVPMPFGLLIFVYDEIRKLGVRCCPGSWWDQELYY
T2 sequence (P18434 whole entry partner): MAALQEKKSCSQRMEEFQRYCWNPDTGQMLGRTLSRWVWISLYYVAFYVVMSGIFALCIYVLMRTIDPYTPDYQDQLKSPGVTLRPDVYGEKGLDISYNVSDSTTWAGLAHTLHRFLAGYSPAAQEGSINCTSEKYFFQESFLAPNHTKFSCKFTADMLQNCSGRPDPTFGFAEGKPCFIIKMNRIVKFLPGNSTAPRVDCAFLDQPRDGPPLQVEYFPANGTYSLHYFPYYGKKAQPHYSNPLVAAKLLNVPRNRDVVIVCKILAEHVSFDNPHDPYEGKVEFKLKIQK
Nature of the assay: Reversibility of inhibition, Dilution and Washout method (Experiment 4-3). In kind it is biochemical, pig. As to conditions: for Reversibility of the inhibition of the enzyme activity: conclusion from Table 4; for Inhibition of H+/K+ ATPase activity after Dilution and Washout: diluted 50 times; for Inhibition of H+/K+ ATPase activity after Dilution and Washout / Inhibition of H+/K+ ATPase activity before Dilution and Washout: pH 6.4, Example 34 at 6 μM, omeprazole and SK&F96067 at 60 μM. As to the method:
The vesicles were lyophilized and kept at -70° C.
To all […] groups, was added 100 μl of lyophilized vesicles prepared in Experiment 4-1 at the concentration of 100 μg protein 1 ml. Then, 5 mM Pipes/Tris buffer(pH 6.4 ) was added to the three groups until the volume of test tubes became 150 μl. After the preincubation for 15 minutes, H^+ /K^+ ATPase activity was measured in accordance with the same procedures as in Experiment 4-2. The concentrations of the test substances as indicated above are the final concentrations.
After the completion of preincubation, each group was diluted 50 times with 5 mM Pipes/Tris buffer(pH 6.4), and then centrifuged for 60 minutes by means of Beckman ultracentrifuge(Model L8-80). The supernatant was discarded and the pellet was suspended with 5 mM Pipes/Tris buffer pH 6.4 until the volume became the same as the preincubation volume.

T1 sequence (P27112 whole entry): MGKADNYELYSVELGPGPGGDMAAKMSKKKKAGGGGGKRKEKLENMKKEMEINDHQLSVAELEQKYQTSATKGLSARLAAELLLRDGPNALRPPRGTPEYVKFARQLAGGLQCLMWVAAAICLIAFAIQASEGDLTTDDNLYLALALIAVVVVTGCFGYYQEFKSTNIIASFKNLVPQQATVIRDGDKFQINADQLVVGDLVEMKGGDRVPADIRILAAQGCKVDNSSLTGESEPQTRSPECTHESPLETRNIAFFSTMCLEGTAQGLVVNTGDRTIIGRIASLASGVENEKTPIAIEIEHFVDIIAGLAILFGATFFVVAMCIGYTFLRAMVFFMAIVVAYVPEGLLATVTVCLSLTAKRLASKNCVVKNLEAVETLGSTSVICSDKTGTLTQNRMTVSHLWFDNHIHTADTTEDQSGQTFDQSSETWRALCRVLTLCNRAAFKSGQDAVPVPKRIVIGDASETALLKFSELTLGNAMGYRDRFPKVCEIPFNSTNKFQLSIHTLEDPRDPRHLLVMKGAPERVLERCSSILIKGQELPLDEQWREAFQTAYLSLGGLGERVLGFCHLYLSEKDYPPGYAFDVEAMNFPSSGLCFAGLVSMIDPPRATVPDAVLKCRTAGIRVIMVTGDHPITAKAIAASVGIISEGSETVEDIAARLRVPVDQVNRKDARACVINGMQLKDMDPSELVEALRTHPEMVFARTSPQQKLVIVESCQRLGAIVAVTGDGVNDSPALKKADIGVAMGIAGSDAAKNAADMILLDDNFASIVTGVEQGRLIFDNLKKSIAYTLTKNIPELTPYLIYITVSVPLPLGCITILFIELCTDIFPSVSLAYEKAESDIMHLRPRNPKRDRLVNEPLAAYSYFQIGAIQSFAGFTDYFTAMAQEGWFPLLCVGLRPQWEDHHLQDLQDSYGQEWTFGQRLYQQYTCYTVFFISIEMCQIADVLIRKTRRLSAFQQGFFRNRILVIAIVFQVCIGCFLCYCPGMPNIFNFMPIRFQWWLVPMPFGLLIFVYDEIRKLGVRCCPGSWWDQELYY
T1 sequence (P18597 whole entry partner): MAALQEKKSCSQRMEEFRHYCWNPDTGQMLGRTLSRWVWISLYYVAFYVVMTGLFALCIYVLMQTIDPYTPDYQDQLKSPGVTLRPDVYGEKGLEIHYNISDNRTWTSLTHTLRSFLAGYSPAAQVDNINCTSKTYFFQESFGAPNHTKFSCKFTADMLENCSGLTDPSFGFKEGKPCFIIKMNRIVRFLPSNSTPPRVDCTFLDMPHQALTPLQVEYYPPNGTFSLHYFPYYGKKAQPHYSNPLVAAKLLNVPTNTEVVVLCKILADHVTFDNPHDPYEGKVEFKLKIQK

Usually ED50 stands for the midpoint of the dose-response relation. In general, IC50 refers to the concentration at which inhibition is half-maximal. Regarding `COc1cccc2c(N3CCc4ccccc4C3C)nc(Nc3ccc(F)cc3C)nc12.Cl` (stereo not shown) [Example 34, 8-Methoxy-2-(4-Fluoro-2-Methyl-Phenylamino)-4-(1-Methyl-1,2,3,4-Tetrahydroisoquinoline-2-Yl)Quinazoline Hydrochloride], the “The gastric secretion inhibition (%)” value in assay [1] (0.5 mg/kg) is recorded as 44.4%; in assay [1] (1.0 mg/kg), 52.0%; in assay [1] (3.0 mg/kg) it was 76.5%. Moreover, the ED50 in assay [1] is 0.9 mg/kg; in assay [2] it was 1.31 mg/kg. For the same molecule, the figures for the “The gastric secretion inhibition” value in assay [2] (1.0 mg/kg), in assay [2] (3.0 mg/kg) and in assay [2] (5.0 mg/kg) were 41.2%, 77.0% and 110.2%, respectively. Further, in assay [3] (IC50 of Omeprazole / IC50 of test compound), the Effect ratio came to 5.45. Besides, in assay [3] (K+-stimulated H+/K+ ATPase activity, rabbit gastric microsomes, pH 7.2, 37° C., 15 min prereaction, 30 min reaction, read-out: IC50 of test compound, inhibition (50%) of the proton pump activity), the IC50 is 1.7 µM. In addition, the “Reversibility of the inhibition of the enzyme activity” value in assay [4] is “reversible”. For the same molecule, the “Inhibition of H+/K+ ATPase activity after Dilution and Washout” value in assay [4] was 16%. Moreover, the “Inhibition of H+/K+ ATPase activity before Dilution and Washout” value in assay [4] is 84%.
As for `COc1ccc2[nH]c([S+]([O-])Cc3ncc(C)c(OC)c3C)nc2c1` (stereo not shown) [Omeprazole, omeprazole, reference compound], the “The gastric secretion inhibition (%)” value is given as 8.0% in assay [1] (0.1 mg/kg), 49.4% in assay [1] (0.3 mg/kg) and 102.3% in assay [1] (1.0 mg/kg). In addition, the ED50 in assay [1] was determined as 0.29 mg/kg; in assay [2], 0.47 mg/kg. Further, the “The gastric secretion inhibition” value came to 5.0% in assay [2] (0.3 mg/kg), 63.1% in assay [2] (0.5 mg/kg) and 114.3% in assay [2] (1.0 mg/kg). Besides, the IC50 in assay [3] (comparative compound, value printed on the line of each test compound, read-out: IC50 of Omeprazole, inhibition (50%) of the proton pump activity) is 9.5 µM and 9.3 µM. The “Reversibility of the inhibition of the enzyme activity” value in assay [4] is “irreversible”. For the same molecule, the “Inhibition of H+/K+ ATPase activity after Dilution and Washout” value in assay [4] was found to be 67%. In addition, the “Inhibition of H+/K+ ATPase activity before Dilution and Washout” value in assay [4] is 80%.
